Laboratory results as given in ChEMBL document CHEMBL1131400, “Synthesis and comparative evaluation of two antiviral agents: beta-L-Fd4C and beta-D-Fd4C” (Bioorg Med Chem Lett, 1998).

Experiments:
B16 = assay: In vitro inhibitory activity against growth of HIV infected B16 cell line; assay type: functional, cell-based; conditions: Mus musculus
CCRF-CEM [1] = assay: In vitro inhibitory activity against growth of HIV infected CEM cell line; assay type: functional, cell-based; conditions: Homo sapiens
CCRF-CEM [2] = assay: In vitro inhibitory activity against growth of HIV infected CEM cells combined with murine CTLL-2T lymphoblast cell line; assay type: functional, cell-based; conditions: Homo sapiens
DLD-1 = assay: In vitro inhibitory activity against growth of HIV infected DLD-1 cell line; assay type: functional, cell-based; conditions: Homo sapiens
Hepatitis B virus = assay: In vitro inhibitory activity against proliferation of HBV viral cell; assay type: functional, organism-based
[3] = tested on: Human immunodeficiency virus; assay: In vitro inhibitory activity against proliferation of HIV viral cell; assay type: functional, organism-based; conditions: Human immunodeficiency virus 1
HepG2 = assay: In vitro inhibitory activity against growth of HIV infected HepG2 cell line; assay type: functional, cell-based; conditions: Homo sapiens
MT2 = assay: In vitro inhibitory activity against growth of HIV infected MT-2/IIIB cell line; assay type: functional, cell-based; conditions: Homo sapiens
Rat1 = assay: In vitro inhibitory activity against growth of HIV infected Rat-1 cell line; assay type: functional, cell-based

| IC50 (B16) [µM] | IC50 (CCRF-CEM [1]) [µM] | IC50 (CCRF-CEM [2]) [µM] | IC50 (DLD-1) [µM] | IC50 (HepG2) [µM] | Structure (SMILES) | EC50 (Hepatitis B virus) [µM] | EC50 [3] [µM] | IC50 (MT2) [µM] | IC50 (Rat1) [µM] |
| --- | --- | --- | --- | --- | --- | --- | --- | --- | --- |
| > 200 | 100 | 127 | > 200 | > 200 | Nc1nc(=O)n([C@H]2C=C[C@@H](CO)O2)cc1F [DEXELVUCITABINE] | < 0.3 | 0.2 | 100 | > 200 |
| > 200 | 6.5 | 24 | > 200 | > 200 | Nc1nc(=O)n([C@@H]2C=C[C@H](CO)O2)cc1F [ELVUCITABINE] | – | 0.2 | 9 | > 200 |
